# Source: patent publication US20210403485A1, “PYRAZOLOPYRIMIDINE DERIVATIVE AS SELECTIVE TRK INHIBITOR” (SHANDONG LUYE PHARMACEUTICAL CO., LTD., priority 2018, published 2021)
# Biological target: T1, ALK (Homo sapiens, UniProt Q9UM73)
# T1 construct: purchased Reaction Biology Corp
# Assay: Kinase inhibitory activity (33P-ATP, filtration-binding method, Reaction Biology Corp.)
# Format: biochemical
# Conditions: read-out: Half maximal inhibitory concentration IC50 for kinases, ALK
# Method: (§1) The mixture was incubated at room temperature for 20 minutes, added with ^33P-ATP at a certain concentration to start the reaction, and then incubated at room temperature for 120 minutes. Finally, the radioactivity of the reactant was detected by the filtration-binding method. The final kinase activity was expressed as the ratio of the remaining kinase activity in the test sample to the kinase activity of the DMSO control. The dose-response curves were fitted and IC50 values were calculated by GraphPad software.
row,IC50 [nM],SMILES
1,> 1000,C[C@@H]1COc2ncc(F)cc2[C@H]2COC[C@@H](C)N2c2ccn3ncc(c3n2)C(=O)N1 [WX006]

# Biological target: T2, Ros1 (Homo sapiens, UniProt P08922)
# T2 construct: purchased Reaction Biology Corp
# Assay: as above
# Format: biochemical
# Conditions: read-out: Half maximal inhibitory concentration IC50 for kinases, Ros1
# Method: as §1
row,IC50 [nM],SMILES
1,4.8,C[C@@H]1COc2ncc(F)cc2[C@H]2COC[C@@H](C)N2c2ccn3ncc(c3n2)C(=O)N1 [WX006]

# Biological target: T3, TrkA (Homo sapiens, UniProt P04629)
# T3 construct: purchased Reaction Biology Corp
# T3 sequence (P04629 33-796): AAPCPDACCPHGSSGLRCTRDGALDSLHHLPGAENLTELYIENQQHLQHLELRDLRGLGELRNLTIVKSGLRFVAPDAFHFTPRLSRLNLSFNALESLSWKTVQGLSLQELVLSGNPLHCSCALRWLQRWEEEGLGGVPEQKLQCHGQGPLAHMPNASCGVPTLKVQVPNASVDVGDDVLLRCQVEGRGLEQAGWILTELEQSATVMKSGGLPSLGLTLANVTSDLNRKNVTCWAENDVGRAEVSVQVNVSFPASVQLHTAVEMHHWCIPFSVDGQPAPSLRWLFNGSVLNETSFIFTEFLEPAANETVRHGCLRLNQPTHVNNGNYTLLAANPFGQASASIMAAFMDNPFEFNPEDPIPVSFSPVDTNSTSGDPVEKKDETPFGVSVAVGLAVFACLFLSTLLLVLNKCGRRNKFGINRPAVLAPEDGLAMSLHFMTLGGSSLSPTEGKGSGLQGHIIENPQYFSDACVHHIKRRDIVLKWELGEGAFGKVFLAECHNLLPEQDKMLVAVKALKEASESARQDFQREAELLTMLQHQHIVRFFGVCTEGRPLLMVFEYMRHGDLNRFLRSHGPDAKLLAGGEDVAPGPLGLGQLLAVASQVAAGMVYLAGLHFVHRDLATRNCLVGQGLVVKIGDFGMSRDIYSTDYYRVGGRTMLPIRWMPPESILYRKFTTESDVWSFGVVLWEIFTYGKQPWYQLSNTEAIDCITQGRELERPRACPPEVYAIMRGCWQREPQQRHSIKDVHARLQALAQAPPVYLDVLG
# Assay: as above
# Format: biochemical
# Conditions: read-out: Half maximal inhibitory concentration IC50 for kinases, TrkA
# Method: as §1
row,IC50 [nM],SMILES
1,0.7,C[C@@H]1COc2ncc(F)cc2[C@H]2COC[C@@H](C)N2c2ccn3ncc(c3n2)C(=O)N1 [WX006]

# Biological target: T4, TrkA-G595R (Homo sapiens, UniProt P04629, G595R)
# T4 construct: purchased Reaction Biology Corp
# T4 sequence (P04629 33-796 G595R): as the sequence (P04629 33-796) above, with G563R counted along it
# Assay: as above
# Format: biochemical
# Conditions: read-out: Half maximal inhibitory concentration IC50 for kinases, TrkA-G595R
# Method: as §1
row,IC50 [nM],SMILES
1,0.3,C[C@@H]1COc2ncc(F)cc2[C@H]2COC[C@@H](C)N2c2ccn3ncc(c3n2)C(=O)N1 [WX006]

# Biological target: T5, TrkA-G667C (Homo sapiens, UniProt P04629, G667C)
# T5 construct: purchased Reaction Biology Corp
# T5 sequence (P04629 33-796 G667C): as the sequence (P04629 33-796) above, with G635C counted along it
# Assay: as above
# Format: biochemical
# Conditions: read-out: Half maximal inhibitory concentration IC50 for kinases, TrkA-G667C
# Method: as §1
row,IC50 [nM],SMILES
1,0.1,C[C@@H]1COc2ncc(F)cc2[C@H]2COC[C@@H](C)N2c2ccn3ncc(c3n2)C(=O)N1 [WX006]

# Biological target: T6, TrkC (Homo sapiens, UniProt Q16288)
# T6 construct: purchased Reaction Biology Corp
# T6 sequence (Q16288 32-839): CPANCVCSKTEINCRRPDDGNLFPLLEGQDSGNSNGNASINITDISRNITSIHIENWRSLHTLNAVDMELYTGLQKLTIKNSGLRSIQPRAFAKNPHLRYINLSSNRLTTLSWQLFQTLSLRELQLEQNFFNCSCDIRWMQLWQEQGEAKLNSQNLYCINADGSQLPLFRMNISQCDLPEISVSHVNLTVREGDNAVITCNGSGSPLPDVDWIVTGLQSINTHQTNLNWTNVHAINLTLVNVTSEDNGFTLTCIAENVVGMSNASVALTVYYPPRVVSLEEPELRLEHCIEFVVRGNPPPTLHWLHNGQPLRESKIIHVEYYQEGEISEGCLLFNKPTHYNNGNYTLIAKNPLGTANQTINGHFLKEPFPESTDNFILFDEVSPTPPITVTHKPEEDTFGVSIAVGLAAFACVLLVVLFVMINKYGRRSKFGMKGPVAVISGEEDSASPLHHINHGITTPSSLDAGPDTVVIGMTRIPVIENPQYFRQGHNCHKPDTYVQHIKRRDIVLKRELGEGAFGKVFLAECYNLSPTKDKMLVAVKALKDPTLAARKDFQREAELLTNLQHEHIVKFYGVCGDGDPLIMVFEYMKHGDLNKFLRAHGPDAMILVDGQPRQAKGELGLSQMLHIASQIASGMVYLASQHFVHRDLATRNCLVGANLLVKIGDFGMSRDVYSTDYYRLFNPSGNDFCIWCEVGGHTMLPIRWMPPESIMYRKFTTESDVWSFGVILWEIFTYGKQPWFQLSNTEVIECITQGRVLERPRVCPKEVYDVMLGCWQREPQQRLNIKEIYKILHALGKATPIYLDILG
# Assay: as above
# Format: biochemical
# Conditions: read-out: Half maximal inhibitory concentration IC50 for kinases, TrkC
# Method: as §1
row,IC50 [nM],SMILES
1,0.1,C[C@@H]1COc2ncc(F)cc2[C@H]2COC[C@@H](C)N2c2ccn3ncc(c3n2)C(=O)N1 [WX006]

# Biological target: T7, Ba/F3 LMNA-NTRK1-F589L (Homo sapiens, UniProt P04629, F589L, cells depend on it)
# T7 construct: fused on or other part: N-terminal part of LMNA as fusion partner (part of the key); P02545 (Prelamin-A/C)
# T7 sequence (P04629 whole entry F589L, the tested form may be a part): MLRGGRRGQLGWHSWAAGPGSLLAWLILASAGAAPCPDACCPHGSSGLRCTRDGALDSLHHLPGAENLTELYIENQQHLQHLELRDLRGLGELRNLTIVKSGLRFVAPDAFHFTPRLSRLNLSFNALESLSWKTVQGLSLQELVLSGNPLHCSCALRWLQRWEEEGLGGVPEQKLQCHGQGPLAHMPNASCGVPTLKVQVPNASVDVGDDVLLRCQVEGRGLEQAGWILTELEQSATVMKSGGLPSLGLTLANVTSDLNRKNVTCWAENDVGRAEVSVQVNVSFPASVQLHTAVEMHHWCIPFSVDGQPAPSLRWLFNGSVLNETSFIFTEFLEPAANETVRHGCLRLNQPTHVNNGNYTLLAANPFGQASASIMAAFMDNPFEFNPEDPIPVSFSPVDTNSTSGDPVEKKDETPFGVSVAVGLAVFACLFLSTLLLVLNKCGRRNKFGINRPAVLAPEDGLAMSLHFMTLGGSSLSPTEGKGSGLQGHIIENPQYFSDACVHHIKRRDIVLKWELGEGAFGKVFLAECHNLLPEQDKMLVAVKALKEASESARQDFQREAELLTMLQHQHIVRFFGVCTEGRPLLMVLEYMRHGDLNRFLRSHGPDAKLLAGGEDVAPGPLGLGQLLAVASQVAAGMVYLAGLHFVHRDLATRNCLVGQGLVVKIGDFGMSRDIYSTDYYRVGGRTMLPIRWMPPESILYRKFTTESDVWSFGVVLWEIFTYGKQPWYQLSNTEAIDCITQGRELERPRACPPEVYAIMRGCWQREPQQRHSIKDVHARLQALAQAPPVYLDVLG
# Assay: Inhibitory activity against cell proliferation (CellTiter-Glo, 72 hours)
# Format: cell-based
# Conditions: read-out: Half maximal inhibitory concentration IC50 of cells, Ba/F3 LMNA-NTRK1-F589L
# Method: (§2) Adenosine Triphosphate (ATP) is an energy carrier commonly used in various life activities in nature, and is the minimum unit for energy storage and transfer. The CellTiter-Glo™ cell viability assay kit uses luciferase as an assay agent, which requires the involvement of ATP in luminescence. The CellTiter-Glo™ reagent is added into cell culture medium to measure the luminescence value. The luminescence signal is directly proportional to the amount of ATP in the system, and the ATP is positively correlated with the number of viable cells. Therefore, the proliferation of cells can be detected by detecting the ATP content using the CellTiter-Glo kit.
# (§3) a) Cells in the logarithmic growth phase were collected and counted using a […]. The cell viability was detected by the trypan blue exclusion method, and the cell viability was kept over 90%.
# (§4) b) The cell concentration was adjusted; 90 μL of the cell suspension was added to a 96-well plate.
# (§5) a) A 10-fold compound solution was prepared, with the highest concentration being 10 μM (a total of 9 concentrations, 3-fold dilution). 10 μL of compound solution was added to each well of a 96-well plate inoculated with cells, and three duplicate wells were set for each compound concentration.
# (§6) a) The CTG reagent was thawed and the cell plate was equilibrated to room temperature for 30 minutes.
# (§7) b) An equal volume of CTG solution was added to each well.
# (§8) c) The plate was shaken on an orbital shaker for 5 minutes to lyse the cells.
# (§9) d) The cell plate was placed at room temperature for 20 minutes to stabilize the luminescence signal.
# (§10) e) The luminescence value was read.
# (§11) The data were analyzed using GraphPad Prism 5.0 software, fitted with nonlinear S-curve regression to give dose-response curves, and IC50 values were calculated therefrom.
row,GI50 [nM],SMILES
1,189,C[C@@H]1COc2ncc(F)cc2[C@H]2COC[C@@H](C)N2c2ccn3ncc(c3n2)C(=O)N1 [WX006]

# Biological target: T8, Ba/F3 LMNA-NTRK1-WT (Homo sapiens, UniProt P04629)
# T8 construct: fused on or other part: N-terminal part of LMNA as fusion partner (part of the key); P02545 (Prelamin-A/C)
# T8 sequence (P04629 whole entry, change not shown, the tested form may be a part): as the sequence (P04629 whole entry F589L, the tested form may be a part) above, with L589F counted along it
# Assay: as above
# Format: cell-based
# Conditions: read-out: Half maximal inhibitory concentration IC50 of cells, Ba/F3 LMNA-NTRK1-WT
# Method: as §2, §3, §4, §5, §6, §7, §8, §9, §10, §11
row,GI50 [nM],SMILES
1,1.5,C[C@@H]1COc2ncc(F)cc2[C@H]2COC[C@@H](C)N2c2ccn3ncc(c3n2)C(=O)N1 [WX006]

# Biological target: T9, Ba/F3 SLC34A2-ROS1-WT (Homo sapiens, UniProt P08922)
# T9 construct: fused on or other part: N-terminal part of SLC34A2 as fusion partner (part of the key); O95436 (Sodium-dependent phosphate transport protein 2B)
# T9 sequence (P08922 whole entry, change not shown, the tested form may be a part): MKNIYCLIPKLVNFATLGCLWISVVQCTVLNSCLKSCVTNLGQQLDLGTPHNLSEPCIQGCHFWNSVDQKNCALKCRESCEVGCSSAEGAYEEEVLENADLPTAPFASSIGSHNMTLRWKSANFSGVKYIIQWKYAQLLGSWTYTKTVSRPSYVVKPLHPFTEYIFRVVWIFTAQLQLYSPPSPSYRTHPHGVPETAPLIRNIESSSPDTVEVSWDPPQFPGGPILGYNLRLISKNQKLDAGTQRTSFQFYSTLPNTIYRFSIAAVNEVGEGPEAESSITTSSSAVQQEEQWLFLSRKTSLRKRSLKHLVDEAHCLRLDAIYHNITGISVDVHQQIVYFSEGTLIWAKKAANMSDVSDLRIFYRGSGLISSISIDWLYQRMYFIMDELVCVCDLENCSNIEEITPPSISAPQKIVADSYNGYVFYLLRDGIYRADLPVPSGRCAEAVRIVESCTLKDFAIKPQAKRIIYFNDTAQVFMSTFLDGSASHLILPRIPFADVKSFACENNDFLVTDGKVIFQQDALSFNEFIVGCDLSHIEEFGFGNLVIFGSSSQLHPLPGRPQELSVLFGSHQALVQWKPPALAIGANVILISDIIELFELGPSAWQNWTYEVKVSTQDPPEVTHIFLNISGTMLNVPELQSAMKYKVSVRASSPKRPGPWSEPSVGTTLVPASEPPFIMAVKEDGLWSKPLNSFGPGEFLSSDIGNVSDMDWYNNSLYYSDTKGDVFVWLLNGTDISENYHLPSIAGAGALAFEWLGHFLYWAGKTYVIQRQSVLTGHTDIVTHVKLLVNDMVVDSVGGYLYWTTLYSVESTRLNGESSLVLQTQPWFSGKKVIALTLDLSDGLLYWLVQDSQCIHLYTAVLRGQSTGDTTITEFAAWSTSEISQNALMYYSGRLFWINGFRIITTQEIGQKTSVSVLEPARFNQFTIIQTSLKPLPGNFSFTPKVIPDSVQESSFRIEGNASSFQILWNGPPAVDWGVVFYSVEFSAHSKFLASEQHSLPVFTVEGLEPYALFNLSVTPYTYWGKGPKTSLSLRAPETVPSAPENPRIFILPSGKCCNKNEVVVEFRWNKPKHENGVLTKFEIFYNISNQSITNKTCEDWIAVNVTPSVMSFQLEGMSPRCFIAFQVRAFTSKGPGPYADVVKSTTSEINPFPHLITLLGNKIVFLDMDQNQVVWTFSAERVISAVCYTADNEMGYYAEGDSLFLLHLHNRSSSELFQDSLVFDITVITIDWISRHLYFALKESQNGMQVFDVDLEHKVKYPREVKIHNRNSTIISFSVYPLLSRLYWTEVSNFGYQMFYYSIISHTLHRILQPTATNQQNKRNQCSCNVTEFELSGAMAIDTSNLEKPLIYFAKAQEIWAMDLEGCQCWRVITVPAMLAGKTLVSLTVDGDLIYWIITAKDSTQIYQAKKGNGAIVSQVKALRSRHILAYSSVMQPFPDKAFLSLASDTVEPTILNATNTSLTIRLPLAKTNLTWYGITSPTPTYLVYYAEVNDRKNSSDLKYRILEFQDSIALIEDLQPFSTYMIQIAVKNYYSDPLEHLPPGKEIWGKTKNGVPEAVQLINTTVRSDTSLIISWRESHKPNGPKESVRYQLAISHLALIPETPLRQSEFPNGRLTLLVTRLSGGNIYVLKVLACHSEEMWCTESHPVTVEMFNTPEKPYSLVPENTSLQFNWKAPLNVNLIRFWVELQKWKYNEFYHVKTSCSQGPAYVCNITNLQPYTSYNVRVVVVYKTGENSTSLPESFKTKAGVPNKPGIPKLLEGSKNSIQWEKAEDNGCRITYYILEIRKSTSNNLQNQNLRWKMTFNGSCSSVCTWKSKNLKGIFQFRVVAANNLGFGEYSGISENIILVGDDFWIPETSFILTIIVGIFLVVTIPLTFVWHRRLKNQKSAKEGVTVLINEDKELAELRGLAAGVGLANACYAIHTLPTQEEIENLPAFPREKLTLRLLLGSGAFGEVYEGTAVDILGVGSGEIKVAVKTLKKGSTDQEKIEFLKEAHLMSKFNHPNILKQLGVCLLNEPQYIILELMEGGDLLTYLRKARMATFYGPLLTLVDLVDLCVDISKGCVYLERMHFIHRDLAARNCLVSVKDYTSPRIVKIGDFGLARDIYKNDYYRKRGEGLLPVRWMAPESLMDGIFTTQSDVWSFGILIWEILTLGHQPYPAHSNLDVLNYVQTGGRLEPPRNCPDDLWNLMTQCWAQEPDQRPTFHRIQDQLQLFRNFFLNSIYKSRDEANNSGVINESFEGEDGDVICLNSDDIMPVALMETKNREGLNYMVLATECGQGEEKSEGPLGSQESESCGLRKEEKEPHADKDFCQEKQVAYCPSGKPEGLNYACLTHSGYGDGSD
# Assay: as above
# Format: cell-based
# Conditions: read-out: Half maximal inhibitory concentration IC50 of cells, Ba/F3 SLC34A2-ROS1-WT
# Method: as §2, §3, §4, §5, §6, §7, §8, §9, §10, §11
row,GI50 [nM],SMILES
1,900,C[C@@H]1COc2ncc(F)cc2[C@H]2COC[C@@H](C)N2c2ccn3ncc(c3n2)C(=O)N1 [WX006]

# Biological target: T10, BaF3 ETV6-NTRK3-WT (Homo sapiens, UniProt Q16288)
# T10 construct: fused on or other part: N-terminal part of ETV6 (TEL) as fusion partner (part of the key); P41212 (Transcription factor ETV6)
# Assay: as above
# Format: cell-based
# Conditions: read-out: Half maximal inhibitory concentration IC50 of cells, BaF3 ETV6-NTRK3-WT
# Method: as §2, §3, §4, §5, §6, §7, §8, §9, §10, §11
row,GI50 [nM],SMILES
1,3.2,C[C@@H]1COc2ncc(F)cc2[C@H]2COC[C@@H](C)N2c2ccn3ncc(c3n2)C(=O)N1 [WX006]

# Biological target: T11, BaF3 LMNA-NTRK1-G595R (Homo sapiens, UniProt P04629, G595R, cells depend on it)
# T11 construct: fused on or other part: N-terminal part of LMNA as fusion partner (part of the key); P02545 (Prelamin-A/C)
# T11 sequence (P04629 whole entry G595R, the tested form may be a part): as the sequence (P04629 whole entry F589L, the tested form may be a part) above, with L589F, G595R counted along it
# Assay: as above
# Format: cell-based
# Conditions: read-out: Half maximal inhibitory concentration IC50 of cells, BaF3 LMNA-NTRK1-G595R
# Method: as §2, §3, §4, §5, §6, §7, §8, §9, §10, §11
row,GI50 [nM],SMILES
1,8.4,C[C@@H]1COc2ncc(F)cc2[C@H]2COC[C@@H](C)N2c2ccn3ncc(c3n2)C(=O)N1 [WX006]

# Biological target: T12, BaF3 LMNA-NTRK1-G667A (Homo sapiens, UniProt P04629, G667A, cells depend on it)
# T12 construct: fused on or other part: N-terminal part of LMNA as fusion partner (part of the key); P02545 (Prelamin-A/C)
# T12 sequence (P04629 whole entry G667A, the tested form may be a part): as the sequence (P04629 whole entry F589L, the tested form may be a part) above, with L589F, G667A counted along it
# Assay: as above
# Format: cell-based
# Conditions: read-out: Half maximal inhibitory concentration IC50 of cells, BaF3 LMNA-NTRK1-G667A
# Method: as §2, §3, §4, §5, §6, §7, §8, §9, §10, §11
row,GI50 [nM],SMILES
1,2,C[C@@H]1COc2ncc(F)cc2[C@H]2COC[C@@H](C)N2c2ccn3ncc(c3n2)C(=O)N1 [WX006]

# Biological target: T13, BaF3 ETV6-NTRK3-G623R (Homo sapiens, UniProt Q16288, G623R, cells depend on it)
# T13 construct: fused on or other part: N-terminal part of ETV6 (TEL) as fusion partner (part of the key); P41212 (Transcription factor ETV6)
# Assay: as above
# Format: cell-based
# Conditions: read-out: Half maximal inhibitory concentration IC50 of cells, BaF3 ETV6-NTRK3-G623R
# Method: as §2, with “kit. In this test, the cell lines used are Ba/F3 LMNA-NTRK1-WT, Ba/F3 LMNA-NTRK1-F589L, BaF3 LMNA-NTRK1-G595R, BaF3 LMNA-NTRK1-G667A, BaF3 ETV6-NTRK3-WT, BaF3 ETV6-NTRK3-G623R, and Ba/F3 SLC34A2-ROS1-WT stable cell strains, 5000 cells/well.” for “kit.”
# as §3, §4
# c) Cells in the 96-well plate were incubated overnight at 37° C. with 5% CO2 and 95% humidity.
# as §5
# b) The cells in the 96-well plate added with compound were incubated for 72 hours at 37° C. with 5% CO2 and 95% humidity, followed by the CTG (CellTiter-Glo) analysis.
# as §6, §7, §8, §9, §10, §11
row,GI50 [nM],SMILES
1,14.2,C[C@@H]1COc2ncc(F)cc2[C@H]2COC[C@@H](C)N2c2ccn3ncc(c3n2)C(=O)N1 [WX006]

# Test system: not listed separately
# Assay: Pharmacokinetic test of compounds in rats (plasma, LC/MS/MS)
# Format: in vivo, male SD rats
# Conditions: IV, 3 mg/kg
# Method: Experimental purpose: male SD rats aged 7-9 weeks were selected as test animals, and the drug concentrations of the compounds in plasma at different time points after single intravenous injection (IV) and intragastric administration (PO) of the compounds were measured by an LC/MS/MS method, so that the pharmacokinetic behavior of the compounds disclosed herein in rats was studied, and the pharmacokinetic characteristic of the compounds was evaluated.
# Drug preparation: the compounds were all prepared into clear solution by taking 5% DMSO+10% solutol+85% water as vehicle, and were used for administration in IV and PO groups. The dose of each compound administered was: IV, 3 mg/kg; PO, 10 mg/kg.
Apparent clearance Cl [mL/min/kg],Apparent volume of distribution Vd [L/kg],Area under the curve AUC0-last [µM·h],Half-life T1/2 [min],SMILES
32.9,1.3,3.818,36,C[C@@H]1COc2ncc(F)cc2[C@H]2COC[C@@H](C)N2c2ccn3ncc(c3n2)C(=O)N1 [WX006]

# Same assay, conditions: PO, 10 mg/kg
Area under the curve AUC0-last [µM·h],Bioavailability F % [%],Time to peak Tmax [min],SMILES
6.637,53,30,C[C@@H]1COc2ncc(F)cc2[C@H]2COC[C@@H](C)N2c2ccn3ncc(c3n2)C(=O)N1 [WX006]

# Same assay, conditions: PO, 10 mg/kg, read-out: Peak concentration Cmax
row,Cmax [µM],SMILES
1,3.75,C[C@@H]1COc2ncc(F)cc2[C@H]2COC[C@@H](C)N2c2ccn3ncc(c3n2)C(=O)N1 [WX006]
